Test results as given in patent US11827580B2, “Aminotetraline activators of serotonin receptors” (ATAI Life Sciences AG, priority 2021, dated 2023).
pEC50: −log10 of the molar value. Counter-ions that a name gives are not always drawn.

Tests used:
[1] = molecular target: T1, 5HT2A (Homo sapiens, UniProt P28223); experiment: 5HT2A activation (%) max at two concentrations (Table 1); format: cell-based; details: for 5HT2A activation (%) max @ 03 μM: 03 μM [sic]; for 5HT2A activation (%) max @ 30 μM: 30 μM (first value of the cell)
T1 sequence (P28223 whole entry): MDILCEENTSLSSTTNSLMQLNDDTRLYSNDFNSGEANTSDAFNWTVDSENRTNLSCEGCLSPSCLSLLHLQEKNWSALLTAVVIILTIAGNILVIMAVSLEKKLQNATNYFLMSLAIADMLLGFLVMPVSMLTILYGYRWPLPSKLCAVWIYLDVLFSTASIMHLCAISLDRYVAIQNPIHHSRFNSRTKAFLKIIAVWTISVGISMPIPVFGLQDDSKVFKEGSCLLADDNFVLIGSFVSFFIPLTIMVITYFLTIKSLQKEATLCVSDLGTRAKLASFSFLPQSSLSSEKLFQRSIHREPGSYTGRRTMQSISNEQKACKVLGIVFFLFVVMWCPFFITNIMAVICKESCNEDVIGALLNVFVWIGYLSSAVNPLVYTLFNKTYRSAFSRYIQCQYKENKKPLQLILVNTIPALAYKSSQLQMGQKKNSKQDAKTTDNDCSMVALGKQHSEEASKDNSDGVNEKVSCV

[2] = molecular target: T1, 5HT2A; experiment: Calcium mobilization assay (Gq signaling); format: cell-based; design: host or cells: U2OS (human), stably transfected
Excerpt: (§1) Calcium Mobilization Assay Method (Performed by DiscoveRx Eurofins)
(§2) The Calcium No-Wash^PLUS assay monitors the activation of a GPCR via Gq secondary messenger signaling in a live cell, non-imaging assay format. Calcium mobilization in PathHunter® cell lines or other cell lines stably expressing Gq-coupled GPCRs is monitored using a calcium-sensitive dye that is loaded into cells. GPCR activation by a compound results in the release of calcium from intracellular stores and an increase in dye fluorescence that is measured in real-time.
(§3) Cell lines expressing the GPCR of interest were expanded from freezer stocks according to standard procedures. Human 5-HT2A, 5-HT2B or 5-HT2C receptor-mediated calcium mobilization was evaluated in stably transfected human-derived U2OS (5-HT2A or 5-HT2B) or HEK (5-HT2B) cells. Cells were seeded in a total volume of 20 μL into black-walled, clear-bottom, Poly-D-lysine coated 384-well microplates and incubated at 37° C. overnight prior to testing.
Assays were performed in 1× Dye Loading Buffer consisting of 1× Dye, 1× Additive A and 2.5 mM Probenecid in HBSS/20 mM Hepes. Probenicid was prepared fresh. Cells were loaded with dye prior to testing. Media was aspirated from cells and replaced with 20 μL Dye Loading Buffer. Cells were incubated for 45 minutes at room temperature.
For agonist determination, cells were incubated with sample to induce response. After dye loading, cells were removed from the incubator and 10 μL HBSS/20 mM Hepes was added. 3× vehicle was included in the buffer when performing agonist dose curves to define the EC80 for subsequent antagonist assays. Cells were incubated for 30 minutes at room temperature in the dark to equilibrate plate temperature.
(§4) Intermediate dilution of sample stocks was performed to generate 4× sample in assay buffer. Compound agonist activity was measured on a FLIPR Tetra (MDS). Calcium mobilization was monitored for 2 minutes and 10 μL 4× sample in HBSS/20 mM Hepes was added to the cells seconds into the assay.
Compound activity data was analyzed using CBIS data analysis suite (ChemInnovation, CA). For agonist mode assays, percentage activity is calculated using the following formula: % Activity=100%×(mean RFU of test sample−mean RFU of vehicle control)/(mean MAX RFU control ligand−mean RFU of vehicle control).
In these studies, the MAX RFU was generated by using 0.1 μM serotonin for the calcium mobilization assay.

[3] = in comparison to mescaline or 2,5-dimethoxy-4-methylphenylisopropylamine at similar doses; cited from earlier work
[4] = molecular target: T1, 5HT2A; experiment: PathHunter β-Arrestin assay; format: cell-based; design: host or cells: U2OS (human), stably transfected
Excerpt: Arrestin Pathway (Performed by DiscoverX Eurofins)
The PathHunter® β-Arrestin assay monitors the activation of a GPCR in a homogenous, non-imaging assay format using a technology developed by DiscoverX called Enzyme Fragment Complementation (EFC) with β-galactosidase (β-Gal) as the functional reporter. […] EA is fused to β-Arrestin and PK is fused to the GPCR of interest. When the GPCR is activated and β-Arrestin is recruited to the receptor, ED and EA complementation occurs, restoring β-Gal activity which is measured using chemiluminescent PathHunter® Detection Reagents.
PathHunter cell lines (DiscoveRx Eurofins) were expanded from freezer stocks according to standard procedures. Human 5-HT2A receptor-mediated GPCR β-arrestin activity was evaluated in stably transfected human-derived U2OS cells. Cells were seeded in a total […] into white walled, 384-well microplates and incubated at 37° C. overnight prior to testing.
For agonist determination, cells were incubated with sample to induce response. Intermediate dilution of sample stocks was performed to generate 5× sample in assay buffer. 5 μL of 5× sample was added to cells and incubated at 37° C. or room temperature for 120 minutes. Vehicle concentration was 1%.
β-Arrestin assay signal was generated through a single addition of 12.5 or 15 μL (50% v/v) of PathHunter Detection reagent cocktail, followed by a one hour incubation at room temperature. Microplates were read following signal generation with a PerkinElmer Envision™ instrument for chemiluminescent signal detection.
Compound activity was analyzed using CBIS data analysis suite (ChemInnovation, CA). For agonist mode assays, percentage activity was calculated using the following formula: % Activity=100%×(mean RLU of test sample−mean RLU of vehicle control)/(mean MAX control ligand−mean RLU of vehicle control).
In these studies, the MAX control ligand response was generated using 1 μM serotonin.

[5] = molecular target: T2, Human 5-HT1A receptor (Homo sapiens, UniProt P08908); experiment: cAMP secondary messenger pathway assay (HitHunter cAMP, Gi agonist mode); format: cell-based; details: CHO cells, forskolin present, read-out: EC50 5-HT1A (Gi signaling)
T2 construct: host or cells: CHO (hamster), stably transfected, cAMP Hunter cell line
T2 sequence (P08908 1-422): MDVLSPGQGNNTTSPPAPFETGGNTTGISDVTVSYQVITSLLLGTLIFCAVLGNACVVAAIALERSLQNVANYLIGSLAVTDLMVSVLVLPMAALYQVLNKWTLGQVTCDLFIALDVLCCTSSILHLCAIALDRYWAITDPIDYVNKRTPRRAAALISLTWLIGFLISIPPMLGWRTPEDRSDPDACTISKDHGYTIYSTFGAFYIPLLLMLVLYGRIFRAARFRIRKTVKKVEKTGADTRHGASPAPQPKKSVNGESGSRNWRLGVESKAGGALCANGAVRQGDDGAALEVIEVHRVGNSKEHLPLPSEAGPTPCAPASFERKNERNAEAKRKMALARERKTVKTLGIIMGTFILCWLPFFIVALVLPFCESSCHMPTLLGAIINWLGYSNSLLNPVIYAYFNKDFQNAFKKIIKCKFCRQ
Excerpt: cAMP Secondary Messenger Pathway Assay Method (Performed by DiscoveRx Eurofins)
DiscoverX has developed a panel of cell lines stably expressing non-tagged GPCRs that signal through cAMP. Hit Hunter® cAMP assays monitor the activation of a GPCR via Gi and Gs secondary messenger signaling in a homogenous, non-imaging assay format using a technology developed by DiscoverX called Enzyme Fragment Complementation (EFC) with β-galactosidase (β-Gal) as the functional reporter. The enzyme is split into two complementary portions: EA for Enzyme Acceptor and ED for Enzyme Donor. ED is fused to cAMP and in the assay competes with cAMP generated by cells for binding to a cAMP-specific antibody. Active β-Gal is formed by complementation of exogenous EA to any unbound ED-cAMP. Active enzyme can then convert a chemiluminescent substrate, generating an output signal detectable on a standard microplate reader.
cAMP Hunter cell lines were expanded from freezer stocks according to standard procedures. Human 5-HT1A receptor-mediated cAMP signaling was evaluated in stably transfected hamster-derived CHO cells. Cells were seeded in a total volume of 20 μL into white walled, 384-well microplates and incubated at 37° C. overnight. cAMP modulation was determined using the DiscoverX HitHunter cAMP XS+ assay. […]
Compound activity was analyzed using CBIS data analysis suite (ChemInnovation, CA). […]

[6] = molecular target: T3, Human 5-HT2B receptor (Homo sapiens, UniProt P41595); experiment: Calcium mobilization assay (Gq signaling); format: cell-based
T3 construct: host or cells: U2OS or HEK (the text names 5-HT2B under both)
T3 sequence (P41595 whole entry): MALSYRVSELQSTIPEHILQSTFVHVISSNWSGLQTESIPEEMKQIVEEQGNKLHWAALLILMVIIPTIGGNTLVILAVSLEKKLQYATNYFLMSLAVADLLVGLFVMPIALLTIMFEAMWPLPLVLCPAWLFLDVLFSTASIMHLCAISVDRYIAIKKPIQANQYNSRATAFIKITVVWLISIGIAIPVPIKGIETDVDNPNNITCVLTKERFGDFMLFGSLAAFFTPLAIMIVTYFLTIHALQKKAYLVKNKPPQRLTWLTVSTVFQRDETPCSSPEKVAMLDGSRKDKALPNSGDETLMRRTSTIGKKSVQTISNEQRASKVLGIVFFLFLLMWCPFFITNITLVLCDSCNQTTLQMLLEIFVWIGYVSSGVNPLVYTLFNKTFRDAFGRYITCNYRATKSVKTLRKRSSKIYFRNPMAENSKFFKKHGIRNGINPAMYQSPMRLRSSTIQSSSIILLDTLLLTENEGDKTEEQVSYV
Excerpt: as §1, §2
as §3, with “testing. […]” for “testing.”
as §4
(§5) Compound activity data was analyzed using CBIS data analysis suite (ChemInnovation, CA). […]

[7] = molecular target: T4, Human 5-HT2C receptor (Homo sapiens, UniProt P28335); experiment: Calcium mobilization assay (Gq signaling); format: cell-based
T4 construct: host or cells: U2OS or HEK (not assigned to 5-HT2C in the text)
T4 sequence (P28335 33-458): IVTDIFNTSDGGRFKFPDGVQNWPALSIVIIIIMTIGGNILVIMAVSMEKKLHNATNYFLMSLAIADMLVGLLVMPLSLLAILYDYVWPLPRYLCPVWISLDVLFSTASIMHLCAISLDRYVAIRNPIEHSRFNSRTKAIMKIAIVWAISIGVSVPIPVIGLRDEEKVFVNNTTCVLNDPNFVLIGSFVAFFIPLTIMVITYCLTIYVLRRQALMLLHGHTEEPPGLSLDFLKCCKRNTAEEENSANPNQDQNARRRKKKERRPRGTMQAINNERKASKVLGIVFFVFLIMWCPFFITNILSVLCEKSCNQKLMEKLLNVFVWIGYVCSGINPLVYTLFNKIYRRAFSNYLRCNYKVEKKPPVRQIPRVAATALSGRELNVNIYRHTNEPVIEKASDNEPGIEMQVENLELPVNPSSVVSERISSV
Excerpt: as §1, §2
as §3, with “testing. […]” for “testing.”
as §4, §5

[8] = system: 5-HT receptors; details: cited from earlier work

Compound | 5HT2A activation (%) max @ 03 μM [1] [%] | 5HT2A activation (%) max @ 30 μM [1] [%] | agonism of 5-HT2A Gq-mediated signaling [2] | potency bias, 5-HT2A Gq-mediated signaling versus β-arrestin recruitment ([2]; FIG. 1B) [fold] | increase in potency at 5-HT2A compared to 5-HT2B ([2]; Gq signaling, FIG. 1A) [fold] | pEC50 ([2]; calcium mobilization) | Emax ([2]; compared to the maximum serotonin response, read-out: max activation of 5-HT2A Gq-mediated signaling) [%] | common psychedelic side effects in rats [3] | agonism / potency for β-arrestin recruitment at 5-HT2A [4] | pEC50 ([4]; U2OS cells, read-out: EC50 5-HT2A (β-arrestin signaling)) | Emax ([4]; read-out: maximum efficacy levels (partial agonism), pathway not given, β-arrestin by context) [%] | pEC50 [5] | pEC50 [6] | pEC50 [7] | activity at 5-HT receptors [8]
COc1cc(C)c(OC)c2c1CC(N)CC2 (stereo not shown) [Compound 1-2, 5,8-dimethoxy-6-methyl-1,2,3,4-tetrahydronaphthalen-2-amine] | 60.9 | 81.9 | full-agonism | ~10 | ~8 | 7.41 | 97 | failed to elicit common psychedelic side effects | partial agonism | 6.41 | 66 | 6.36 | 6.50 | 8.32 | has activity at 5-HT receptors
CNC1CCc2c(OC)ccc(OC)c2C1 (stereo not shown) [Compound 1-4, 5,8-dimethoxy-N-methyl-1,2,3,4-tetrahydronaphthalen-2-amine hydrochloride] | 8.5 | 20.3 |  |  |  |  |  |  |  |  |  |  |  |  | 
COc1ccc(OC)c2c1CCCC2CN (stereo not shown) [Compound 3-1, (5,8-dimethoxy-1,2,3,4-tetrahydronaphthalen-1-yl)methanamine hydrochloride] | 1.5 | 53 |  |  |  |  |  |  |  |  |  |  |  |  | 
